This passage reports AC50 results from ChEMBL document CHEMBL5291721, “A preclinical secondary pharmacology resource illuminates target-adverse drug reaction associations of marketed drugs” (Nat Commun, 2023).

Each structure is given as a SMILES string. Some results are limits rather than exact numbers.

The target of one assay is Vasopressin V2 receptor (Homo sapiens, UniProt P30518).
The target in the next assay is D(1A) dopamine receptor (Homo sapiens, UniProt P21728). It counts as functional, cell-based.
Sequence of D(1A) dopamine receptor (P21728 whole entry): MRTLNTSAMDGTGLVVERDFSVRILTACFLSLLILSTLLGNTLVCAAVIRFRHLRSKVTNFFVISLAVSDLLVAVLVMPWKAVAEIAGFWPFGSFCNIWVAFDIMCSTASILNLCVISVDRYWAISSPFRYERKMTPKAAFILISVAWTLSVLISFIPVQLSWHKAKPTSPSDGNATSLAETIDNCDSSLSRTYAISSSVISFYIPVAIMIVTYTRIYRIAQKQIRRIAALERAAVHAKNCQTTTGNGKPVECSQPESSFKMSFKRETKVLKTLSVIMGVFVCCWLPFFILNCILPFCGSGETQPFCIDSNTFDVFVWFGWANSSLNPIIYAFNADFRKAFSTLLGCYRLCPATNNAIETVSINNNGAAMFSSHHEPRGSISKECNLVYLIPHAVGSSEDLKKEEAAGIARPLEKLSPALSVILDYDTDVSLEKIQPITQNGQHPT
The target in a further assay is Histamine H2 receptor (Homo sapiens, UniProt P25021). It counts as functional, cell-based.
Sequence of Histamine H2 receptor (P25021 whole entry): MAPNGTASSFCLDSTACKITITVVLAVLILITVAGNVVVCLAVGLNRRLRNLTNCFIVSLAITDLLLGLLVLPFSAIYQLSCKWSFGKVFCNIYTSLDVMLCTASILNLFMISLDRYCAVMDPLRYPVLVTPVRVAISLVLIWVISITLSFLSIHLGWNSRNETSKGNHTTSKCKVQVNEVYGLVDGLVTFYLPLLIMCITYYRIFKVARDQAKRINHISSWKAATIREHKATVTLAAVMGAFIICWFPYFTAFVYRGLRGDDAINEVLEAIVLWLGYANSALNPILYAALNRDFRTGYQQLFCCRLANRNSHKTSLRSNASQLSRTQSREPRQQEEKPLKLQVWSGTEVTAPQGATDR
The target of assay [1] is T1, 5-hydroxytryptamine receptor 3A (Homo sapiens, UniProt P46098).
T1 sequence (P46098 whole entry): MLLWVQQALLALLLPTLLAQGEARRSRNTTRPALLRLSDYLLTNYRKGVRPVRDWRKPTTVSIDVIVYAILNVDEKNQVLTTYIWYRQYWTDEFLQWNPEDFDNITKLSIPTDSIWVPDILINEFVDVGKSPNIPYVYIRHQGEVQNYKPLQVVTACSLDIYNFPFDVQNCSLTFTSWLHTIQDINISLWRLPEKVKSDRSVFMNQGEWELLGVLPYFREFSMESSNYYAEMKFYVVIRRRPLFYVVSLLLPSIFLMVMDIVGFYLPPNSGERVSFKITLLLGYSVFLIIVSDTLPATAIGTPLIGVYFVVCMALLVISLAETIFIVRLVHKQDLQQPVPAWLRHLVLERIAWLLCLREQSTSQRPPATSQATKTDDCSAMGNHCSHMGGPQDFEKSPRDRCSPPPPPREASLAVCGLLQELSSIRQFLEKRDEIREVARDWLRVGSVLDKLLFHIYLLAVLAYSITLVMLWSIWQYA
It counts as functional.

The target in assay [2] is 3',5'-cyclic-AMP phosphodiesterase 4D (Homo sapiens, UniProt Q08499). It counts as functional.
Sequence of 3',5'-cyclic-AMP phosphodiesterase 4D (Q08499 whole entry): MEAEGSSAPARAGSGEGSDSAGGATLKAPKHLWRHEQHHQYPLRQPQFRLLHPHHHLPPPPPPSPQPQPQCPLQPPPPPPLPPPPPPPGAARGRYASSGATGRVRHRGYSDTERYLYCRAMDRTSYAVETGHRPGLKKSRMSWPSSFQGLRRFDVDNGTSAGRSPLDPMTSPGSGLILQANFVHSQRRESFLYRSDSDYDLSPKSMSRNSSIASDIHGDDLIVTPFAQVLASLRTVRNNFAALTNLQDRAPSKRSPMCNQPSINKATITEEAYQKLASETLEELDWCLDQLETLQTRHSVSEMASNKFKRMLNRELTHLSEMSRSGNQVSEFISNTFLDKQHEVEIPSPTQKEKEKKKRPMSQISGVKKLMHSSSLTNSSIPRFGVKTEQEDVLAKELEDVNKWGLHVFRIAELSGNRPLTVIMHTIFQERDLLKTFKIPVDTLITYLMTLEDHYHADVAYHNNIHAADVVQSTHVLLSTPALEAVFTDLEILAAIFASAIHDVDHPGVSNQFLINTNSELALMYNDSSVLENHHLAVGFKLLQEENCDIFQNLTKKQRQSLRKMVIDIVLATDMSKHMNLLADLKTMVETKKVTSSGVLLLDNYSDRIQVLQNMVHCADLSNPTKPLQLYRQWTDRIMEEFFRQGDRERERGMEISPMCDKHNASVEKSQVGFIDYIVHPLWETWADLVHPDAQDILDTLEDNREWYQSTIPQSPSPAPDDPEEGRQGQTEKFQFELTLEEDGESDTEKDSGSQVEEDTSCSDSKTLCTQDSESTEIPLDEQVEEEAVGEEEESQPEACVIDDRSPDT
The next assay has as its target T2, Progesterone receptor (Homo sapiens, UniProt P06401).
T2 sequence (P06401 whole entry): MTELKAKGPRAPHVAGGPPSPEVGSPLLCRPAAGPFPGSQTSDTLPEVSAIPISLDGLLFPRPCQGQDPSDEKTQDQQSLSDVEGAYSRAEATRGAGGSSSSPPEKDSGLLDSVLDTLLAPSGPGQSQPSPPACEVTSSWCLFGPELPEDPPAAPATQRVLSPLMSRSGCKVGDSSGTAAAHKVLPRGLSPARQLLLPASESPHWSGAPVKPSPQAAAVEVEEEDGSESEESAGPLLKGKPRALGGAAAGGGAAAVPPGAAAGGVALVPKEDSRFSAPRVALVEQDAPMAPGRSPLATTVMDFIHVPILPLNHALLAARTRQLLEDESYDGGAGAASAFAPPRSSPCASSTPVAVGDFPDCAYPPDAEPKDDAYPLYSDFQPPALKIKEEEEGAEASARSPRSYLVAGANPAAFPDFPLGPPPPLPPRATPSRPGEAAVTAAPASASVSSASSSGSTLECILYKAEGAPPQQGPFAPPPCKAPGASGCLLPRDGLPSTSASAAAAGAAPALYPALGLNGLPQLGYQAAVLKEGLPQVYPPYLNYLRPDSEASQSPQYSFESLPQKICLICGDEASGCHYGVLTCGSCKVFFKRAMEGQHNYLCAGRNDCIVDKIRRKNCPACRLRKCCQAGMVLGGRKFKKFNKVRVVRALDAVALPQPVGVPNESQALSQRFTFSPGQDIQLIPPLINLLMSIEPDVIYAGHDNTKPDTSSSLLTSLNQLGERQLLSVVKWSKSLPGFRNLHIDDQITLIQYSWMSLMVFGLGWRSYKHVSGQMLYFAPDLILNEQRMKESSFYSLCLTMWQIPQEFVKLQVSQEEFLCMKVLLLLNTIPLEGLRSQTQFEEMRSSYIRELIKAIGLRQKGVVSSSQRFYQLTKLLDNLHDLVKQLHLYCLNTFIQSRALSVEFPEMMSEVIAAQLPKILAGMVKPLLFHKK
It counts as functional.

Assay [3] deals with T3, Prostaglandin G/H synthase 1 (Rattus norvegicus, UniProt Q63921).
T3 sequence (Q63921 whole entry): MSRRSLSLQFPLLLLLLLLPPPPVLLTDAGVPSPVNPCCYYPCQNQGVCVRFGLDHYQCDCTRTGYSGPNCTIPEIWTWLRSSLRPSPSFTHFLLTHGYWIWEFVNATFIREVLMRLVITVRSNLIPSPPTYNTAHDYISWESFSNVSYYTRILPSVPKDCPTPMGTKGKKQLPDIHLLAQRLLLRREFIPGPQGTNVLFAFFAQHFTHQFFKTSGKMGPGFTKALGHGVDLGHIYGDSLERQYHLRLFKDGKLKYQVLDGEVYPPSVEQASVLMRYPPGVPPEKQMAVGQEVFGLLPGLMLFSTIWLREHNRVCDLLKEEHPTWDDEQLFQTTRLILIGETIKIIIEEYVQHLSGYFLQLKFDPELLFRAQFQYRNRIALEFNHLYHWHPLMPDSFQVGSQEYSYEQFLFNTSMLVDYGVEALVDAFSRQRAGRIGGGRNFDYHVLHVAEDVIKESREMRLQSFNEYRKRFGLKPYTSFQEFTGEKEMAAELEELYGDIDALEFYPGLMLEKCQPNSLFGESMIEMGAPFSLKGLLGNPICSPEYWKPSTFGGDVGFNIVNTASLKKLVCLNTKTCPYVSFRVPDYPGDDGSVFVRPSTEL
It counts as functional.

The target in assay [4] is Sodium-dependent dopamine transporter (Homo sapiens, UniProt Q01959).
Sequence of Sodium-dependent dopamine transporter (Q01959 whole entry): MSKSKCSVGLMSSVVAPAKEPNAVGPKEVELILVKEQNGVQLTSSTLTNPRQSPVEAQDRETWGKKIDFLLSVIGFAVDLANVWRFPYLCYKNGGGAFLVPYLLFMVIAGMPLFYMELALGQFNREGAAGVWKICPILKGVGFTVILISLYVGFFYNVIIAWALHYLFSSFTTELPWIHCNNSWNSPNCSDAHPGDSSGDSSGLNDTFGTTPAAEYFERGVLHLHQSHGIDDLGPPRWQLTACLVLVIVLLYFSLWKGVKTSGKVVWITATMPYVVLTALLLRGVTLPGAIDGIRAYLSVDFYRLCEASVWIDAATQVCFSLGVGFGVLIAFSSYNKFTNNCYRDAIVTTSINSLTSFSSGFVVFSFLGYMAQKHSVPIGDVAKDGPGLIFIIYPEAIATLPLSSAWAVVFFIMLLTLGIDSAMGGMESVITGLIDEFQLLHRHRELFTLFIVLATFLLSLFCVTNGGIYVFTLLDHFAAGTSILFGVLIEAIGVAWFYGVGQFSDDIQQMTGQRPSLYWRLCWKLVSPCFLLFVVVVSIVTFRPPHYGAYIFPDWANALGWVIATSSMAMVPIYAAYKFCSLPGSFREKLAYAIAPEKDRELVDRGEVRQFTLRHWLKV
For assay [5], the target named is T4, Alpha-1A adrenergic receptor (Homo sapiens, UniProt P35348).
T4 sequence (P35348 whole entry): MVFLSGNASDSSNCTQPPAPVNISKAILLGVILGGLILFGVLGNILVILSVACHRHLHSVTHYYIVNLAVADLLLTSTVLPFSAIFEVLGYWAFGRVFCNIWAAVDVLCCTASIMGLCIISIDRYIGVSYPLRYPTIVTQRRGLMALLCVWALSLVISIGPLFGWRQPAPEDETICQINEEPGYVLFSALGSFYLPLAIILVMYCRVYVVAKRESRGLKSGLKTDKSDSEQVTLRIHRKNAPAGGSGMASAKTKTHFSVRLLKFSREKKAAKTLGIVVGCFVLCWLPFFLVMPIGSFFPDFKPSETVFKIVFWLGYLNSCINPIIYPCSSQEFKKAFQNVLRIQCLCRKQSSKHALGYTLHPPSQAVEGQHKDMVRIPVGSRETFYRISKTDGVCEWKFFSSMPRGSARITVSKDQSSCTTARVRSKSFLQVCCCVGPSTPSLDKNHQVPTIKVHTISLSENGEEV
It counts as functional, cell-based.
Also: assay procedure not described here.

Sequence of Vasopressin V2 receptor (P30518 whole entry): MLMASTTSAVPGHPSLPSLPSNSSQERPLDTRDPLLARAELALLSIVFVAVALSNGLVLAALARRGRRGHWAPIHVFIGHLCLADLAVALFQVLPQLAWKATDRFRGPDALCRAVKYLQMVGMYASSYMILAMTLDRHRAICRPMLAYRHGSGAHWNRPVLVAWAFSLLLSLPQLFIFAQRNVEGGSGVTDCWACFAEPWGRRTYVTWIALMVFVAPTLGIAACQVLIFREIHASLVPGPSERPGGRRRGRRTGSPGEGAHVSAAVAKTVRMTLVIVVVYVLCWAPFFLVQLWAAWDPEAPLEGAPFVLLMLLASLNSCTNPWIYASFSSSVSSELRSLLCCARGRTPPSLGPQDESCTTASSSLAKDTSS

One may read the AC50 as the concentration at which the activity in the assay is half-maximal. For `COc1cc2c(cc1OC)C(CCc1ccc(Cl)cc1)N(C)CC2` (centres undefined) [METHOPHOLINE], the AC50 at Vasopressin V2 receptor was greater than 30 µM; on D(1A) dopamine receptor, greater than 10 µM; on Histamine H2 receptor it was greater than 10 µM; in [1], greater than 30 µM; in [2] it was greater than 30 µM; at Progesterone receptor it was greater than 30 µM. Further, the AC50 in [3] amounted to 0.77 µM; in assay [4], 28.7 µM.

Take `O=C1CN=C(c2ccccc2)c2cc([N+](=O)[O-])ccc2N1` [NITRAZEPAM]: the AC50 is greater than 10 µM at Vasopressin V2 receptor; greater than 30 µM on D(1A) dopamine receptor; greater than 30 µM at Histamine H2 receptor; greater than 30 µM in [1]; 30 µM in [2]; greater than 10 µM on Progesterone receptor. Besides, the AC50 in [3] and in assay [4] was greater than 10 µM in each case.

As for `OCc1cc(C(O)CNCCCCCCOCCCCc2ccccc2)ccc1O` (centres undefined) [SALMETEROL], the half-maximal activity concentration (AC50) at Vasopressin V2 receptor was greater than 30 µM; at D(1A) dopamine receptor, greater than 30 µM; on Histamine H2 receptor, greater than 10 µM; in [1] it was greater than 30 µM; in assay [2], greater than 30 µM; at Progesterone receptor, greater than 30 µM. Further, the concentration at half-maximal activity (AC50) was greater than 30 µM in assay [3] and 0.845 µM in [4].

Consider `Nc1cc(-c2ccncc2)c[nH]c1=O` [INAMRINONE], for which the half-maximal activity concentration (AC50) in assay [5] was greater than 30 µM; at Vasopressin V2 receptor, greater than 30 µM; at D(1A) dopamine receptor, greater than 10 µM; at Histamine H2 receptor, greater than 10 µM; in [1], greater than 30 µM; in assay [3], greater than 30 µM. Further, the AC50 in [4] is greater than 30 µM.

In the case of `Cn1cnc2c(F)c(Nc3ccc(Br)cc3Cl)c(C(=O)NOCCO)cc21` [SELUMETINIB], the AC50 in assay [2], in [3] and in assay [4] was greater than 30 µM each time.

As to `CCN(CC)CCN1C(=O)CN=C(c2ccccc2F)c2cc(Cl)ccc21` [FLURAZEPAM], the concentration at half-maximal activity (AC50) in [5] was greater than 30 µM; on Vasopressin V2 receptor, greater than 30 µM; on D(1A) dopamine receptor, greater than 30 µM; on Histamine H2 receptor it was greater than 30 µM; in assay [1], 20 µM; in assay [2], greater than 30 µM. In addition, the AC50 in [3] and in [4] was greater than 30 µM in each case.

For the compound `CC(=O)[C@]1(O)Cc2c(O)c3c(c(O)c2[C@@H](O[C@H]2C[C@H](N)[C@H](O)[C@H](C)O2)C1)C(=O)c1ccccc1C3=O` [IDARUBICIN], the AC50 was greater than 10 µM on Vasopressin V2 receptor; greater than 30 µM at D(1A) dopamine receptor; greater than 30 µM at Histamine H2 receptor; 13 µM in assay [1]; greater than 30 µM in assay [2]; greater than 30 µM in [3]. In assay [4], the AC50 stood at 15 µM.

Regarding `C/C(=C\C(=O)OCCCCCCCCC(=O)O)C[C@@H]1OC[C@H](C[C@@H]2O[C@H]2[C@@H](C)[C@H](C)O)[C@@H](O)[C@H]1O` [MUPIROCIN], the AC50 at Vasopressin V2 receptor was greater than 10 µM; at D(1A) dopamine receptor, greater than 10 µM; at Histamine H2 receptor, greater than 10 µM; in assay [1] it was greater than 30 µM; in [2], greater than 30 µM; on Progesterone receptor it was greater than 10 µM. The AC50 in assay [3] was greater than 10 µM; in [4], greater than 30 µM.

Consider `Cc1ncc2n1-c1ccc(Cl)cc1C(c1ccccc1F)=NC2` [MIDAZOLAM], for which the concentration at half-maximal activity (AC50) is greater than 30 µM in assay [5]; greater than 30 µM on Vasopressin V2 receptor; greater than 30 µM on D(1A) dopamine receptor; greater than 30 µM on Histamine H2 receptor; greater than 30 µM in assay [1]; 10 µM in assay [2]. The AC50 in [3] and in assay [4] was greater than 30 µM throughout.

Regarding `COc1ccc2nc3cc(Cl)ccc3c(Nc3cc(CN4CCCC4)c(O)c(CN4CCCC4)c3)c2n1` [PYRONARIDINE], the AC50 is greater than 30 µM in assay [5]; 18 µM at Vasopressin V2 receptor; greater than 30 µM on D(1A) dopamine receptor; greater than 30 µM at Histamine H2 receptor; greater than 30 µM in [1]; 24 µM in [2]. For the same compound, the concentration at half-maximal activity (AC50) in assay [3] is greater than 30 µM; in assay [4], 11 µM.

Regarding `CCCCCC(=O)O[C@]1(C(C)=O)CC[C@H]2[C@@H]3CCC4=CC(=O)CC[C@]4(C)[C@H]3CC[C@@]21C` [HYDROXYPROGESTERONE CAPROATE], the AC50 was greater than 30 µM in [5]; greater than 30 µM at Vasopressin V2 receptor; greater than 30 µM at D(1A) dopamine receptor; greater than 30 µM on Histamine H2 receptor; greater than 30 µM in assay [1]; 25 µM in assay [2]. For the same compound, the figures for the AC50 in [3] and in [4] were greater than 30 µM and 21.3 µM, respectively.

As for `CC(=O)[C@@]1(O)CC[C@H]2[C@@H]3C=C(Cl)C4=CC(=O)[C@@H]5C[C@@H]5[C@]4(C)[C@H]3CC[C@@]21C` [CYPROTERONE], the AC50 on Vasopressin V2 receptor was greater than 10 µM; on D(1A) dopamine receptor it was 2.07 µM; on Histamine H2 receptor, greater than 10 µM; in assay [1], greater than 30 µM; in [2], greater than 10 µM; in [3], greater than 10 µM. Moreover, the half-maximal activity concentration (AC50) in [4] is greater than 10 µM.

As to `CC(=O)OCC(=O)[C@@]1(O)[C@H](C)C[C@H]2[C@@H]3CCC4=CC(=O)C=C[C@]4(C)[C@@]3(F)[C@@H](O)C[C@@]21C` [DEXAMETHASONE ACETATE], the AC50 is greater than 30 µM in [5]; greater than 30 µM at Vasopressin V2 receptor; greater than 10 µM at D(1A) dopamine receptor; greater than 10 µM at Histamine H2 receptor; greater than 30 µM in assay [1]; greater than 30 µM in assay [2]. Further, the AC50 in assay [3] and in [4] was greater than 30 µM throughout.

For `Cn1c(=O)cc(N2CCC[C@@H](N)C2)n(Cc2ccccc2C#N)c1=O` [ALOGLIPTIN], the concentration at half-maximal activity (AC50) is greater than 30 µM at Vasopressin V2 receptor; greater than 10 µM in [1]; greater than 30 µM in assay [2]; greater than 30 µM in [3]; greater than 10 µM in assay [4].

In the case of `CCOC(=O)O[C@]1(C(=O)OCCl)CC[C@H]2[C@@H]3CCC4=CC(=O)C=C[C@]4(C)[C@H]3[C@@H](O)C[C@@]21C` [LOTEPREDNOL ETABONATE], the AC50 (in assay [5]; at Vasopressin V2 receptor; at D(1A) dopamine receptor; at Histamine H2 receptor; in [1]; in assay [2]) was greater than 30 µM each time. For the same compound, the AC50 in assay [3] and in [4] was greater than 30 µM in each case.
